Measurements taken from ChEMBL document CHEMBL3739309, “Fragment growing exploiting dynamic combinatorial chemistry of inhibitors of the aspartic protease endothiapepsin” (Medchemcomm, 2015).

Target: T1, Endothiapepsin (Cryphonectria parasitica, UniProt P11838)
T1 sequence (P11838 whole entry): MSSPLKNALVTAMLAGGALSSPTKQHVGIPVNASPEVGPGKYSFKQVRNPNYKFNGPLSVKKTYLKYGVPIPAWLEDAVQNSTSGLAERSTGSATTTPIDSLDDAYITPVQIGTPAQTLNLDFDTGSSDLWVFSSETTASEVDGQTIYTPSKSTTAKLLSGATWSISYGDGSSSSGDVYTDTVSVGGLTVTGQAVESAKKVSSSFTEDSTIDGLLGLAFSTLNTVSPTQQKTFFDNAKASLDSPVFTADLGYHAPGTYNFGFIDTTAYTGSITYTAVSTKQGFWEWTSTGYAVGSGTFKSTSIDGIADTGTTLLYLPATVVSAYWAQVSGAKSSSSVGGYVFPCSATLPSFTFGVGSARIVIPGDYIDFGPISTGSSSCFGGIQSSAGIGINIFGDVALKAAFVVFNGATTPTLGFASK
Experiment: Inhibition of Cryphonectria parasitica endothiapepsin using 2-aminobenzoyl-Thr-Ile-Nle-Phe(p-NO2)-Gln-Arg-NH2 as substrate assessed as hydrolysis of substrate into 2-aminobenzoyl-Thr-Ile-Nle and Phe(p-NO2)-GLn-Arg-NH2 by fluorescence-based spectrophotometric analysis

Compound	IC50 [µM]
N[C@H](C(=O)N/N=C/C1CCCC1)c1ccc(C(F)(F)F)cc1 (mixture of isomers)	85
N[C@H](C(=O)N/N=C/c1ccccc1)c1ccc(C(F)(F)F)cc1 (mixture of isomers)	210
